Columns and labels:
BALB/c splenocytes = assay: FACS analysis of BALB/c splenocytes after 24 hours with test agents; type: cell-based, mouse; details: for CD45+ CD3+ CD4+ / CD45+ CD3+ CD4+ CD25+ / CD45+ CD3+ CD4+ FoxP3+ / CD45+ CD3+ CD4+ FoxP3+, CD25+ / CD45+ CD3+ CD4+ FoxP3+, CD25− / CD45+ CD3+ CD4+ FoxP3− CD25+ / CD45± / Live / CD45+ CD3+: 24 hours
Text: FACS analysis consisted of the following markers: live/dead, CD45, CD3, CD4, CD25 and FOXP3.

[1] = system: breast cancer cell line MCF-7; details: cited from earlier work
mouse fibroblasts = details: cited from earlier work
[2] = 1 uM, n=5, mean (SD in the line below)

Nc1ccccc1NC(=O)c1ccc(CNC(=O)OCc2cccnc2)cc1 [Entinostat, reference compound]
CD45+ CD3+ CD4+ (BALB/c splenocytes; 1 uM, n=5): 38.5% | CD45+ CD3+ CD4+ CD25+ (BALB/c splenocytes; 1 uM, n=5): 10.4% | CD45+ CD3+ CD4+ FoxP3+ (BALB/c splenocytes; 1 uM, n=5): 10.1% | CD45+ CD3+ CD4+ FoxP3+, CD25+ (BALB/c splenocytes; 1 uM, n=5): 5.12% | CD45+ CD3+ CD4+ FoxP3+, CD25− (BALB/c splenocytes; 1 uM, n=5): 2.33% | CD45+ CD3+ CD4+ FoxP3− CD25+ (BALB/c splenocytes; 1 uM, n=5): 4.57% | CD45± (BALB/c splenocytes; 1 uM, n=5): 99.1% | Live (BALB/c splenocytes; [2]): 97.6%

O=C(NO)c1cnc(N2CC3C(C2)C3NCc2ccc3cc(F)ccc3n2)nc1 (stereo not shown) [VRx-3996, 2-(6-{[(6-Fluoroquinolin-2-yl)methyl]amino}-3-azabicyclo[3.1.0]hex-3-yl)-N-hydroxypyrimidine-5-carboxamide]
CD45+ CD3+ (BALB/c splenocytes; 1 nM, n=5): 46.9% | CD45+ CD3+ CD4+ (BALB/c splenocytes; 1 nM, n=5): 32.4% | CD45+ CD3+ CD4+ CD25+ (BALB/c splenocytes; 1 nM, n=5): 7.93% | CD45+ CD3+ CD4+ FoxP3+ (BALB/c splenocytes; 1 nM, n=5): 12% | CD45+ CD3+ CD4+ FoxP3+, CD25+ (BALB/c splenocytes; 1 nM, n=5): 6.2% | CD45+ CD3+ CD4+ FoxP3+, CD25− (BALB/c splenocytes; 1 nM, n=5): 4.47% | CD45+ CD3+ CD4+ FoxP3− CD25+ (BALB/c splenocytes; 1 nM, n=5): 1.14% | CD45± (BALB/c splenocytes; 1 nM, n=5): 98.6% | Live (BALB/c splenocytes; 1 nM, n=5): 98.4% | CD45+ CD3+ (BALB/c splenocytes; 100 nM, n=5): 94% | CD45+ CD3+ CD4+ (BALB/c splenocytes; 100 nM, n=5): 75.3% | CD45+ CD3+ CD4+ CD25+ (BALB/c splenocytes; 100 nM, n=5): 1.89% | CD45+ CD3+ CD4+ FoxP3+ (BALB/c splenocytes; 100 nM, n=5): 1.62% | CD45+ CD3+ CD4+ FoxP3+, CD25+ (BALB/c splenocytes; 100 nM, n=5): 0.064% | CD45+ CD3+ CD4+ FoxP3+, CD25− (BALB/c splenocytes; 100 nM, n=5): 0.34% | CD45+ CD3+ CD4+ FoxP3− CD25+ (BALB/c splenocytes; 100 nM, n=5): 1.22% | CD45± (BALB/c splenocytes; 100 nM, n=5): 99.6% | Live (BALB/c splenocytes; 100 nM, n=5): 91.4% | CD45+ CD3+ (BALB/c splenocytes; 500 nM, n=5): 94% | CD45+ CD3+ CD4+ (BALB/c splenocytes; 500 nM, n=5): 80.6% | CD45+ CD3+ CD4+ CD25+ (BALB/c splenocytes; 500 nM, n=5): 3.03% | CD45+ CD3+ CD4+ FoxP3+ (BALB/c splenocytes; 500 nM, n=5): 2.36% | CD45+ CD3+ CD4+ FoxP3+, CD25+ (BALB/c splenocytes; 500 nM, n=5): 0.22% | CD45+ CD3+ CD4+ FoxP3+, CD25− (BALB/c splenocytes; 500 nM, n=5): 0.47% | CD45+ CD3+ CD4+ FoxP3− CD25+ (BALB/c splenocytes; 500 nM, n=5): 1.69% | CD45± (BALB/c splenocytes; 500 nM, n=5): 99.5% | Live (BALB/c splenocytes; 500 nM, n=5): 87.2% | CD45+ CD3+ (BALB/c splenocytes; 1 uM, n=5): 94.7% | CD45+ CD3+ CD4+ (BALB/c splenocytes; 1 uM, n=5): 82.2% | CD45+ CD3+ CD4+ CD25+ (BALB/c splenocytes; 1 uM, n=5): 3.57% | CD45+ CD3+ CD4+ FoxP3+ (BALB/c splenocytes; 1 uM, n=5): 3.85% | CD45+ CD3+ CD4+ FoxP3+, CD25+ (BALB/c splenocytes; 1 uM, n=5): 0.14% | CD45+ CD3+ CD4+ FoxP3+, CD25− (BALB/c splenocytes; 1 uM, n=5): 0.8% | CD45+ CD3+ CD4+ FoxP3− CD25+ (BALB/c splenocytes; 1 uM, n=5): 1.96% | CD45± (BALB/c splenocytes; 1 uM, n=5): 99.6% | Live (BALB/c splenocytes; [2]): 84.7% | reduction in FoxP3, CD25+ T cells (BALB/c splenocytes; compared to entinostat at 1 μM): ~47 fold | concentration at which the suppressive effect on FoxP3+, CD25+ T cells was seen (BALB/c splenocytes; seen at least as low as): ≤ 100 nM | effect on CD4+, CD25+, and FoxP3+ regulatory cells (BALB/c splenocytes; striking when compared to entinostat): specifically reduces

CCCC(=O)O [butyrate]
cellular proliferation [1]: induces a block in cellular proliferation | cell cycle (mouse fibroblasts): block the cell cycle in the G1 phase
